# Experimental data: patent publication US6559161B1, “Cytotoxic pyrido[2,3,4-ki]acridine derivatives, their preparation and their therapeutic use” (Universidad de Barcelona, priority 1999, dated 2003)
# Read-outs that look alike come from different tables or passages of the source.
# Legend:
# [1] = test system: P-388D1 (ATCC CCL-46, lymphoid neoplasm from DBA/2 mouse); assay: cytotoxicity, growth inhibition of P-388D1 cells in culture; assay type: cell-based; conditions: approximate IC50, three days of incubation at 37° C., growth vs control wells
# Source text: (§1) The antitumour activity of the compounds of the present invention has been detected in vitro by culturing the tumour cells following the methodology described in Bergeron et al (1984), and by Schroeder et al (1981). Activity against different tumours as mouse lymphoma, human NSC lung carcinoma, human melanoma and human colon carcinoma has been observed.
# (§2) Biological activity: cells were maintained in logarithmic phase of growth in Eagle's Minimum Essential Medium, with Earle's Balanced Salts, with 2.0 mM L-glutamine, with non-essential amino acids, without sodium bicarbonate (EMEM/neaa); supplemented with 10% Fetal Calf Serium (FCS), 10^−2 M sodium bicarbonate and 0.1 g/l penicillin-G+streptomycin sulfate.
# (§3) The tumour cell lines employed have been P-388D1 (ATCC CCL-46, suspension culture of a lymphoid neoplasm from DBA/2 mouse), A549 (ATCC CCL-185, monolayer culture of a human lung carcinoma), HT-29 (ATCC HTB-38, monolayer culture of a human colon carcinoma) and SK-MEL-28 (ATCC HTB-72, monolayer culture of a human melanoma).
# P-388D1 cells were seeded into 16 mm wells at 1×10^4 cells per well in 1 ml aliquots of MEM 5FCS containing the indicated concentration of drug. A separate set of cultures without drug was seeded as control growth to ensure that cells remained in expotential phase of growth. All determinations were carried out in duplicate. After three days of incubation at 37° C., 10% CO2 in a 98% humid atmosphere, an approximate IC50 was determined by comparing the growth in wells with drug to the growth in wells control.
# [2] = test system: SK-MEL-28 (ATCC HTB-72, human melanoma); assay: cytotoxicity, growth inhibition of SK-MEL-28 cells, Crystal Violet staining; assay type: cell-based; conditions: approximate IC50, three days of incubation at 37° C.
# Source text: as §1, §2, §3
# (§4) A549, HT-29 and SK-MEL-28 were seeded into 16 mm wells at 2×10^4 cells per well in 1 ml aliquots of MEM 10FCS containing the indicated concentration of drug. A separate set of cultures without drug and was seeded as control growth to ensure that cells remained in exponential phase of growth. All determinations were carried out in duplicate. After three days of incubation at 37° C., 10% CO2 in a 98% humid atmosphere, the wells were stained with 0.1% Crystal Violet. An approximate IC50 was determined by comparing the growth in wells with drug to the growth in wells control.
# [3] = test system: A549 (ATCC CCL-185, human lung carcinoma); assay: cytotoxicity, growth inhibition of A549 cells, Crystal Violet staining; assay type: cell-based; conditions: approximate IC50, three days of incubation at 37° C., read-out: IC50 (μM) A549 ATCC-CCL-L-185
# Source text: as §1, §2, §3, §4
# [4] = test system: HT-29 (ATCC HTB-38, human colon carcinoma); assay: cytotoxicity, growth inhibition of HT-29 cells, Crystal Violet staining; assay type: cell-based; conditions: approximate IC50, three days of incubation at 37° C.
# Source text: as §1, §2, §3, §4
Compound,IC50 [1],IC50 [2],IC50 [3],IC50 [4],"IC50 ([1]; Mus musculus, P388D1, 72 h)","IC50 ([2]; Homo sapiens, SK-MEL-28, 72 h)","IC50 ([3]; Homo sapiens, A549, 72 h)","IC50 ([4]; Homo sapiens, HT-29, 72 h)",melting point
"COc1ccc2c3c(c4ccccc4nc13)C=CN2 [Example 1, 3H-6-Methoxypyrido[2,3,4-kl]acridine]",0.5 µM,0.05 µM,0.05 µM,0.5 µM,,,,,
"COc1cc([N+](=O)[O-])c2c3c(c4ccccc4nc13)C=CN2 [Example 3, 6-Methoxy-4-nitro-3H-pyrido[2,3,4-kl]acridine]",,,,,0.34 µM,0.03 µM,0.03 µM,0.34 µM,220 to 223 °C
"COc1cc(NC(C)=O)c2c3c(c4ccccc4nc13)C=CN2 [Example 4, 4-Acetylamino-6-methoxy-3H-pyrido[2,3,4-kl]acridine]",,,,,1.64 µM,0.03 µM,0.03 µM,1.64 µM,128 to 132 °C
